From US11591634B1, “Forecasting bacterial survival-success and adaptive evolution through multiomics stress-response mapping and machine learning” (priority 2019, dated 2023)

Assays:
Assay in all cases: Fitness outcome under ciprofloxacin (growth curve assay)
Format in all cases: cell-based
[1] = test system: Klebsiella pneumoniae AR497; conditions: K. pneumoniae AR497
Procedure: (§1) Since the single-timepoint variant of entropy is the most practical (in terms of data collection and cost), the generalizability of entropy to previously unseen species was evaluated using this model. RNA-Seq was performed at 120 min post exposure to 1 μg/mL of CIP. […] Single-timepoint entropy was computed for the transcriptome of each of these previously unseen isolates.
(§2) S. pneumoniae strain TIGR4 (T4; NC_003028.3) is a serotype 4 strain originally isolated from a patient^3,4, Taiwan-19F (19F; NC_012469.1) is a multi-drug resistant strain^5,6 and D39 (NC_008533) is a commonly used serotype 2 strain originally isolated from a patient about 90 years ago^7. Strain PG1 and PG19 were isolated from adults with pneumococcal bacteremia infection and included in the Pneumococcal Bacteremia Collection Nijmegen (PBCN)^8. All S. pneumoniae gene numbers refer to the T4 genome. Correspondence between homologous genes among S. pneumoniae strains and gene function annotations are described herewith. Escherichia coli strain AR538, Klebsiella pneumoniae strain AR497 and Salmonella enterica subsp Typhimurium strain AR635 were clinical isolates obtained from the Center of Disease Control (CDC). Staphylococcus aureus strain MN6 was kindly provided by George Sakoulas (Center of Immunity, Infection & Inflammation, UCSD School of Medicine). Unless otherwise specified, S. pneumoniae strains were cultivated in Todd Hewitt medium with 5% yeast extract (THY) with 5 μL/mL oxyrase (Oxyrase, Inc) or on sheep's blood agar plates (Northeastern Laboratories) at 37° C. with 5% CO2. A. baumannii, E. coll. K. pneumoniae, S. aureus and S. Typhimurium were cultured in Mueller Hinton broth II (Sigma) at 37° C. with 220 rpm constant shaking. Tn-Seq and RNA-Seq experiments of S. pneumoniae under nutrient-depletion and antibiotic conditions were performed in chemically defined medium (CDM)^9 and semi-defined minimal medium (SDMM)^10, respectively. RNA-Seq experiments for A. baumannii, S. Typhimurium, E. coll. K. pneumoniae, and S. aureus were performed in Mueller Hinton broth II. Single strain growth assays were performed at least three times using 96-well plates by taking OD600 measurements on a Tecan Infinite 200 PRO plate reader.

[2] = test system: Escherichia coli AR538; conditions: E. coli AR538
Procedure: as §1, §2

[3] = test system: Staphylococcus aureus MN6; conditions: S. aureus MN6
Procedure: as §1, §2

[4] = test system: Salmonella Typhimurium AR635; conditions: S. Typhimurium AR635, 1 μg/mL ciprofloxacin
Procedure: as §1, §2

[5] = 1 μg/mL ciprofloxacin, listed as CIP
[6] = 1 μg/mL ciprofloxacin, listed as ciprofloxacin
[7] = strain-specific 1xMIC of ciprofloxacin

`O=C(O)c1cn(C2CC2)c2cc(N3CCNCC3)c(F)cc2c1=O` [Ciprofloxacin, ciprofloxacin] was tested, and the Fitness ([1]; 1 μg/mL ciprofloxacin) was “High”, the Fitness [1, 5] was “insensitive” and the Fitness [1, 6] was “high fitness”. For the same compound, the Fitness [1, 7] was “Low,”, the Fitness ([2]; 1 μg/mL ciprofloxacin) was “High” and the Fitness [2, 5] was “insensitive”. The Fitness [2, 6] was “high fitness”, the Fitness [2, 7] was “Low,” and the Fitness ([3]; 1 μg/mL ciprofloxacin) was “High”. The Fitness [3, 5] was “insensitive”, the Fitness [3, 7] was “Low,” and the Fitness [4] was “Low”. For the same compound, the Fitness ([4]; listed as ciprofloxacin) was “low fitness”.
